Experimental data published in patent US6897244B2, “Dihydronootkatone and tetrahydronootkatone as repellents to arthropods” (Board of Supervisors of Louisiana State University and …, priority 2002, dated 2005).

Key:
[1] = tested on: Formosan subterranean termites; assay: Petri dish treated/untreated sand bioassay for repelling activity against termites; format: in vivo, Coptotermes formosanus; design: key to percent of termites on untreated sand vs expected value of 50% (Chi-Square, p≦0.05): “−” indicates the test was not significantly different from the expected value; “+” indicates the test was significantly different from the expected value
Description: A carton nest (colony A) of Formosan subterranean termites was collected in Algiers, Louisiana in November 1997, and held in 250-liter cans. The cans were filled with pine as a food source, and kept at a temperature range of 24-26° C. Moistened corrugated cardboard rolls were used to retrieve termites from the cans. Once the termites migrated to the cardboard rolls, they were gently knocked from the cardboard rolls into clean rectangular plastic trays (40 cm×50 cm). Retrieved termites were isolated from debris by allowing them to cling to sheets of moistened paper towels. The average weight of each termite was 1.21 mg.
To test for effectiveness of nootkatone, 1,10-dihydronootkatone and tetrahydronootkatone in repelling termites, a bioassay was conducted using Petri dishes (5 cm diameter and 1 cm height). To ensure adequate moisture for the termites, 1 ml of a hot agar solution (1.5% in H2O) was spread on the bottom of the Petri dish. After the agar cooled, sand that was treated as described below was spread on the bottom of the Petri dish. For the treated sand, purified 1,10-dihydronootkatone or tetrahydronootkatone were dissolved in 2 ml ethanol, and then diluted to achieve final concentrations of 1, 2, 5, 12.5, 25, 50, and 100 μg/g sand. The solution was mixed with 1 g sand that had been autoclaved and cooled. The control sand was autoclaved sand with only 200 μl ethanol added. One half of the surfaces in the Petri dishes were covered with 1 g treated sand, and the other half with 1 g untreated sand.
The prepared Petri dishes were then used to evaluate the repelling activity against Formosan subterranean termites. Ten worker termites were added to each Petri dish, and the dishes were covered to eliminate light. Five replicate dishes were tested for each concentration and for the control. Termite position was recorded every 15 min during the first hour of testing by counting the number of termites observed on untreated sand. After the first hour, termite position was recorded each hour for 3 hr.
Differences between the percent of termites on untreated sand and an expected value were statistically analyzed by a Chi-Square analysis, using an expected value of 50% and a significance level of p≦0.05.

[2] = tested on: ants; conditions: previously discovered, U.S. Ser. No. 09/932,555; cited from earlier work
[3] = tested on: ticks; conditions: previously discovered, U.S. Ser. No. 09/932,555; cited from earlier work
[4] = tested on: cockroaches; conditions: previously discovered, U.S. Ser. No. 09/932,555; cited from earlier work
[5] = tested on: fleas; conditions: previously demonstrated, U.S. Ser. No. 09/932,555; cited from earlier work

Question: Which results are given for C=C(C)C1CCC2=CC(=O)CC(C)C2(C)C1 (centres unmarked) [Nootkatone, 4,4a,5,6,7,8-hexahydro-6-isopropenyl-4,4a-dimethyl-2(3H)-naphthalenone]?
Answer: percent of termites on untreated sand vs expected value of 50% (Chi-Square, p≦0.05) ([1]; 2 μg/dish, 0.25 hour): −; percent of termites on untreated sand vs expected value of 50% (Chi-Square, p≦0.05) ([1]; 2 μg/dish, 0.5 hour): −; percent of termites on untreated sand vs expected value of 50% (Chi-Square, p≦0.05) ([1]; 2 μg/dish, 0.75 hour): −; percent of termites on untreated sand vs expected value of 50% (Chi-Square, p≦0.05) ([1]; 2 μg/dish, 1 hour): −; percent of termites on untreated sand vs expected value of 50% (Chi-Square, p≦0.05) ([1]; 2 μg/dish, 2 hour): −; percent of termites on untreated sand vs expected value of 50% (Chi-Square, p≦0.05) ([1]; 2 μg/dish, 3 hour): −; percent of termites on untreated sand vs expected value of 50% (Chi-Square, p≦0.05) ([1]; 5 μg/dish, 0.25 hour): −; percent of termites on untreated sand vs expected value of 50% (Chi-Square, p≦0.05) ([1]; 5 μg/dish, 0.5 hour): −; percent of termites on untreated sand vs expected value of 50% (Chi-Square, p≦0.05) ([1]; 5 μg/dish, 0.75 hour): −; percent of termites on untreated sand vs expected value of 50% (Chi-Square, p≦0.05) ([1]; 5 μg/dish, 1 hour): −; percent of termites on untreated sand vs expected value of 50% (Chi-Square, p≦0.05) ([1]; 5 μg/dish, 2 hour): −; percent of termites on untreated sand vs expected value of 50% (Chi-Square, p≦0.05) ([1]; 5 μg/dish, 3 hour): −; percent of termites on untreated sand vs expected value of 50% (Chi-Square, p≦0.05) ([1]; 12.5 μg/dish, 0.25 hour): −; percent of termites on untreated sand vs expected value of 50% (Chi-Square, p≦0.05) ([1]; 12.5 μg/dish, 0.5 hour): −; percent of termites on untreated sand vs expected value of 50% (Chi-Square, p≦0.05) ([1]; 12.5 μg/dish, 0.75 hour): −; percent of termites on untreated sand vs expected value of 50% (Chi-Square, p≦0.05) ([1]; 12.5 μg/dish, 1 hour): −; percent of termites on untreated sand vs expected value of 50% (Chi-Square, p≦0.05) ([1]; 12.5 μg/dish, 2 hour): −; percent of termites on untreated sand vs expected value of 50% (Chi-Square, p≦0.05) ([1]; 12.5 μg/dish, 3 hour): −; percent of termites on untreated sand vs expected value of 50% (Chi-Square, p≦0.05) ([1]; 25 μg/dish, 0.25 hour): −; percent of termites on untreated sand vs expected value of 50% (Chi-Square, p≦0.05) ([1]; 25 μg/dish, 0.5 hour): −; percent of termites on untreated sand vs expected value of 50% (Chi-Square, p≦0.05) ([1]; 25 μg/dish, 0.75 hour): −; percent of termites on untreated sand vs expected value of 50% (Chi-Square, p≦0.05) ([1]; 25 μg/dish, 1 hour): −; percent of termites on untreated sand vs expected value of 50% (Chi-Square, p≦0.05) ([1]; 25 μg/dish, 2 hour): −; percent of termites on untreated sand vs expected value of 50% (Chi-Square, p≦0.05) ([1]; 25 μg/dish, 3 hour): −; percent of termites on untreated sand vs expected value of 50% (Chi-Square, p≦0.05) ([1]; 50 μg/dish, 0.25 hour): +; percent of termites on untreated sand vs expected value of 50% (Chi-Square, p≦0.05) ([1]; 50 μg/dish, 0.5 hour): −; percent of termites on untreated sand vs expected value of 50% (Chi-Square, p≦0.05) ([1]; 50 μg/dish, 0.75 hour): −; percent of termites on untreated sand vs expected value of 50% (Chi-Square, p≦0.05) ([1]; 50 μg/dish, 1 hour): +; percent of termites on untreated sand vs expected value of 50% (Chi-Square, p≦0.05) ([1]; 50 μg/dish, 2 hour): −; percent of termites on untreated sand vs expected value of 50% (Chi-Square, p≦0.05) ([1]; 50 μg/dish, 3 hour): −; percent of termites on untreated sand vs expected value of 50% (Chi-Square, p≦0.05) ([1]; 100 μg/dish, 0.25 hour): +; percent of termites on untreated sand vs expected value of 50% (Chi-Square, p≦0.05) ([1]; 100 μg/dish, 0.5 hour): +; percent of termites on untreated sand vs expected value of 50% (Chi-Square, p≦0.05) ([1]; 100 μg/dish, 0.75 hour): +; percent of termites on untreated sand vs expected value of 50% (Chi-Square, p≦0.05) ([1]; 100 μg/dish, 1 hour): +; percent of termites on untreated sand vs expected value of 50% (Chi-Square, p≦0.05) ([1]; 100 μg/dish, 2 hour): +; percent of termites on untreated sand vs expected value of 50% (Chi-Square, p≦0.05) ([1]; 100 μg/dish, 3 hour): +; concentration required for a significant effect of the treated sand on termite distribution ([1]; time periods greater than 1 hr): 100 μg/dish; activity against ants [2]: significant repellent and toxicant; activity against ticks [3]: significant repellent and toxicant; activity against cockroaches [4]: repellent; effect on fleas [5]: not affected
